This is an account of results in patent US6534282B2, “Detection of hypertension using immunoreactive metabolic products” (priority 1999, dated 2003).

One data set concerns anti-14,15-DHET IgG. The data set is described as follows: Specificity of the 14,15-DHET competitive ELISA (eicosanoid panel). The data set is classed as binding, goat. The note with it: for cross-reaction with anti-14,15-DHET (in words) / cross-reaction with anti-14,15-DHET: 14,15-DHET ELISA; for cross-reactivity relative to 14,15-DHET: competition with 14,15-DHET for anti-14,15-DHET IgG in ELISA. As to the method: Synthetic 14, 15- or 8,9-DHETs were coupled to KLH using dicyclohexylcarbodiimide as previously described (25). The conjugate was used to immunize a goat and antibody titers were determined by ELISA using DHET-conjugated bovine serum albumin (BSA).
High-binding microplates were coated with protein G-purified IgG suspended in 1M carbonate, pH 9.0, (1 μg/well; 200 μl/well final volume) and then covered with paraflim. After overnight incubation at room temperature, the wells were gently washed five times with tris buffered saline (TBS), pH 7.5, containing 0.1% tween. Non-specific sites were blocked by the addition of 0.2 ml of 5% (w/v) nonfat dry milk in TBS. After two hours of incubation at room temperature, they were washed three times with TBS-tween. One μg/well of purified IgG was sufficient for quantitation of 0.5 to 100 pg/well of 14,15- or 8,9-DHETs. Samples and standards (150 μL) were added and the plates incubated for 20 minutes, after which 15 ng of the DHET-HRP conjugate was added in 50 μL of TBS. Following incubation for one hour to permit competitive binding to bound antibody, unbound material was removed by thorough washing of the wells with TBS-tween, and 150 μL of a colorimetric substrate for HRP [3,3′,5,5′ tetramethylbenzidine (TMB) and hydrogen peroxide] (Sigma Co.) was added. The plate is then incubated for 20 minutes, the reaction stopped by addition of 75 μL of 1N H2SO4, and the absorbance at 450 nm was determined using a microtiter plate reader. Under these assay conditions, the amount of color in a well is inversely proportional to the initial concentration of the sample or a standard ligand.
The specificity of the 14,15-DHET ELISA was investigated using authentic DHET and a panel of eicosanoids (Table 5) which, based on their structure, might be anticipated to compete with 14,15-DHET for binding to antibodies against 14,15-DHET. […] There was a slight cross-reaction with 8,9- and 11,12-DHET (3.3% for both).
A listing of the panel of eicosanoids used to analyze the specificity of the 14,15-DHET ELISA. These eicosanoids were selected based on the similarity of their structure to 14,15-DHET, as being anticipated to potentially compete with 14,15-DHET for binding to anti-14,15-DHET and thus interfere with such assays.

The test system of data set [1] is AA epoxygenase. The data set is described as follows: AA oxygenase activity assay of hepatic microsomes using 14C AA, from treated rats. The data set is classed as in vivo, rat. The note with it: hepatic microsomes of rats treated i.p. 10 mg/kg/d for 4 days; incubation 10 min. The method, then: (§1) Male and female Sprague-Dawley (SD) rats (160-200 g) were purchased from Charles River Laboratories (Wilmington, Mass.) and housed in a controlled environment and fed standard laboratory chow for at least 3 days before use.
Microsomes were prepared from rat livers and kidneys as described previously (27,28). Microsomes were stored at −80° C. in 50 mM Tris acetate buffer, pH 7.4, containing 1 mM EDTA and 20% glycerol until use.
After incubation of the microsomes (1 mg protein/ml, final concentration), 0.05 M Tris-HCl buffer, pH 7.5, containing 0.15 m KCl, 10 mM MgC12, 8 mM sodium isocitrate and 0.5 IU of isocitrate dehydrogenase and, incubated with ^14C AA (1 μCi/μmol, 100 μM, final concentration) in the presence of 1 mM NADPH at 30° C. The reaction products were taken at five and ten minutes and extracted into ethyl ether containing 0.05% acetic acid. The AA oxygenase metabolites were separated by HPLC and quantitated by a radiomatic Flo-One β-detector.
The reaction products were taken at 5 and 10 min. and extracted into ethyl ether containing 0.05% acetic acid). The AA oxygenase metabolites were separated by HPLC and quantitated by a radiomatic Flo-One B-detector.

The subject of another data set is CYP2C23. The data set is described as follows: Western blot of hepatic microsomes for CYP2C23. The data set is classed as in vivo, rat. Conditions: after 4 days of treatment, 10 mg/kg/day i.p., FIG. 4. As to the method:
as §1
SDS-PAGE was carried out on 10% acrylamide gel. The separated proteins were electroblotted onto cellulose membrane and Western blot analyses were carried out using alkaline phosphatase system as previously described (29). Visualization of P450 bands was accomplished by incubation with a mixture of 5-bromo4-chloro-3-indolylphosphatate p-toluidine and nitrobluetetrazolium.
In general terms: Immunoblotting shows a protein as a band on a membrane.

In data set [2] the test system is AA epoxygenase. The note with it: rats; cited from earlier work.

On to `CCCCC/C=C\C/C=C\C/C=C\CC(O)C(O)CCCC(=O)O` (stereo not shown) [5,6-DHET], for which, in the data set with anti-14,15-DHET IgG, the “cross-reaction with anti-14,15-DHET (in words)” value (“cross-reaction … (in words)” for short) is given as “did not cross-react” and the “cross-reactivity relative to 14,15-DHET” value turned out to be 0.02%.
The matching figures for `CCCCC[C@H](O)/C=C/[C@H]1[C@H](O)CC(=O)[C@@H]1C/C=C\CCCC(=O)O` [PGE2]: “did not cross-react” and below 0.01%.
As for `CCCCC[C@H](O)/C=C/[C@@H]1[C@@H](C/C=C\CCCC(=O)O)[C@@H](O)C[C@H]1O` [PGF2α], in the data set with anti-14,15-DHET IgG, the “cross-reaction … (in words)” value was “did not cross-react” and the “cross-reactivity relative to 14,15-DHET” value is on record as below 0.01%.
In the case of `CCCCCC=CCC=CCC(O)C(O)CC=CCCCC(=O)O` (stereo not shown) [8,9-DHET, 8,9-dihydroxyeicosatrienoic acid], in the data set with anti-14,15-DHET IgG, the “cross-reaction with anti-14,15-DHET” value is given as 3.3% and the “cross-reactivity relative to 14,15-DHET” value was determined as 3.30%.
As for `CCCCC[C@H](O)/C=C/C=C\C/C=C\C=C\[C@@H](O)CCCC(=O)O` [5(s)15(S)DiHETE], in the data set with anti-14,15-DHET IgG, the “cross-reaction … (in words)” value is listed as “did not cross-react” and the “cross-reactivity relative to 14,15-DHET” value came out at 0.20%.
The matching figures for `CCCCC/C=C\C[C@H]1O[C@H]1C/C=C\C/C=C\CCCC(=O)O` [11,12-EET]: “did not cross-react” and 0.05%.
Regarding `C[C@@H]1C[C@H]2[C@@H]3CCC4=CC(=O)C=C[C@]4(C)[C@@]3(F)[C@@H](O)C[C@]2(C)[C@@]1(O)C(=O)CO` [DEX, dexamethasone], in the data set on AA epoxygenase [1], the “11,12-EET formed” value amounted to 73 ng EET formed/mg protein and the “14,15-EET formed” value turned out to be 97 ng EET formed/mg protein. Moreover, in the data set on CYP2C23, the “hepatic CYP2C23 protein level” value is recorded as “decreased dramatically”.
Turning to `CCCCC[C@H](O)/C=C/[C@H]1OC(O)C[C@H](O)[C@@H]1C/C=C\CCCC(=O)O` (stereo partly shown) [Thromboxane B2], in the data set with anti-14,15-DHET IgG, the “cross-reaction … (in words)” value is “did not cross-react” and the “cross-reactivity relative to 14,15-DHET” value was found to be 0.02%.
The matching figures for `CCCCC/C=C\C/C=C\CC1OC1C/C=C\CCCC(=O)O` (stereo not shown) [8,9-EET]: “did not cross-react” and 0.40%.
As for `CCCCCC1OC1C/C=C\C/C=C\C/C=C\CCCC(=O)O` (stereo not shown) [14,15-EET], in the data set with anti-14,15-DHET IgG, the “cross-reaction … (in words)” value is listed as “did not cross-react” and the “cross-reactivity relative to 14,15-DHET” value was 1.50%.
Turning to `CCCCC[C@H](O)/C=C/[C@@H]1[C@@H](CC(=O)CCCCC(=O)O)[C@@H](O)C[C@H]1O` [6-keto-PGF1α], in the data set with anti-14,15-DHET IgG, the “cross-reaction … (in words)” value is listed as “did not cross-react” and the “cross-reactivity relative to 14,15-DHET” value was below 0.01%.
For `CCCCC[C@H](O)/C=C/C=C\C/C=C\C/C=C\CCCC(=O)O` [15(S)HETE], in the data set on anti-14,15-DHET IgG, the “cross-reaction … (in words)” value is listed as “did not cross-react” and the “cross-reactivity relative to 14,15-DHET” value amounted to 1.00%.
On to `CCCCC/C=C\C/C=C\C/C=C\CC1OC1CCCC(=O)O` (stereo not shown) [5,6-EET], for which, in the data set on anti-14,15-DHET IgG, the “cross-reaction … (in words)” value was “did not cross-react” and the “cross-reactivity relative to 14,15-DHET” value is 0.02%.
The matching figures for `CCCCC/C=C\C/C=C\C/C=C\C/C=C\CCCC(=O)O` [arachidonic acid]: “did not cross-react” and 0.05%.
With `CCCCCC(O)C(O)CC=CCC=CCC=CCCCC(=O)O` (stereo not shown) [14,15-DHET, 14,15-dihydroxyeicosatrienoic acid], the “cross-reactivity relative to 14,15-DHET” value in the data set on anti-14,15-DHET IgG is 100.00%.
As for `Clc1ccccc1C(c1ccccc1)(c1ccccc1)n1ccnc1` [clotrimazole], in the data set with AA epoxygenase [2], the blood pressure effect result was “induced salt-sensitive and clotrimazoledependent hypertension”; the “urinary excretion of Na+, EETs and DHETs” value is “decreased”.
With `CCCCC/C=C\CC(O)C(O)C/C=C\C/C=C\CCCC(=O)O` (stereo not shown) [11,12-DHET], in the data set with anti-14,15-DHET IgG, the “cross-reaction with anti-14,15-DHET” value turned out to be 3.3% and the “cross-reactivity relative to 14,15-DHET” value was determined as 3.30%.
